{
  "source": "patent US10226440B2",
  "about": "“Oral compositions comprising creatine” (Eddie O'Gorman Ltd, priority 2011, dated 2019)",
  "experiment": "HPLC creatine levels after storage of other aqueous gels, jellies, suspensions and water controls",
  "assay_type": "physicochemical",
  "conditions": "10 g in 50 ml water, stored at 4 deg Celsius and room temperature, after one month",
  "protocol": "A spectrophotometric scan of the colloidal creatine (10 mg ml^−1 dissolved in HPLC mobile phase), the CARG (1:15 dilution in HPLC mobile phase) and the HPLC mobile phase was performed to determine the appropriate detection wavelength for the HPLC assay. The scan was performed over a wavelength range from 190-950 nm. It was decided to use 220 nm as the detection wavelength.\nDue to the viscous nature of the CARG it had to be diluted by a factor of 10 at the very least before samples could be injected onto the HPLC. In general a dilution factor of 1/15 was used in the analysis of the samples. The variation in peak area over the course of the experiment was not significant and gave a standard deviation of 1351126.18 (approximately equivalent to 0.13 mg ml^−1 creatine), see Tables 1 and 2.\nTwo aqueous gels, (A) and (B), were created containing colloidal creatine were made by mixing with water and heating to 55 deg Celsius:\nThis was stored in a 100 ml plastic dispensing container at room temperature. Creatine levels were measured after 3 months using the above HPLC method and found to have decreased by 22% at 4 deg Celsius and only 5% at room temperature.\nAnother oral product was made using colloidal creatine in standard commercially available jelly beans reconstituted in water. The concentrations of colloidal creatine per ml of reconstituted jelly bean were 0, 20, 50, 100 and 200 mg/ml. […]",
  "data": [
    {"smiles": "CN(CC(=O)O)C(=N)N", "note": "[creatine, creatine (2-(methylguanidino)ethanoic acid)]", "values": [
      {"measurement": "loss of creatine content", "result": 90, "unit": "%"}
    ]}
  ]
}
